Source: BindingDB's records for doi:10.1016/j.bmc.2020.115928 (Tu Dresden, 2021)

Assay: Inhibition of rabbit skeletal muscle myosin-2 ATPase incubated for 20 mins followed by ATP addition and measured after 20 mins

`Oc1c(Br)cc(Br)cc1-c1[nH]c(Br)c(Br)c1Br` [pentabromopseudilin] gave an IC50 of 5.1 µM.
